Where two headings read alike, the source gives them in different places.
Columns and labels:
[1] = Lethal dose 50 on the rat by intravenous injection; conditions: in vivo
Procedure: The compounds of this invention are characterized by their absence of toxicity. By way of illustration, for the compound described in example 20, the lethal dose 50 determined on the rat, by intravenous injection is higher than 150 mg/kg.

platelets of guinea-pig = assay: Inhibition of the platelet aggregation induced by U46619 (BORN test), guinea-pig platelets; type: cell-based; conditions: read-out: PLATELET AGGREGATION GUINEA-PIG IC 50
Text: (A) Inhibition of the platelet aggregation induced by U46619, a stable analogue of TXA2 (9,11-dideoxy-11α,9α-epoxymethanoprostaglandine F2 α):
The tests determine a concentration of compound which inhibits at 50% (CI50) a liminar aggregation induced by U46619. The activities of the compounds of the present invention are given in example 108.
(§1) The products of examples 1 to 107 have been tested for platelet aggregation on guinea-pig and on the contraction of the aorta in rat as described previously.

rat aorta = assay: Inhibition of the U46619 induced rat aorta vasoconstriction; type: cell-based; conditions: contraction by U46619 (142 nM), rat thoracic aorta, 37° C., read-out: VASOCONSTRICTION RAT AORTA IC 50
Procedure: (B) Inhibition of the U46619 induced rat aorta vasoconstriction:
male rats weighing about 300 g are put to death by euthanasia; the thoracic aorta is rapidly taken out. A sample of about 1 cm is cut into a spiral, and placed in a vat containing 20 ml of nutrient medium (Krebs-Henseleit) kept a 37° C. and oxygenated (O2 95%, CO2 5%). The contractions are recorded with an isotonic strain gauge. After a rest of 45 mn, supramaximum contractions are provoked by the addition of an analogue of TXA2 (U46619: 142 nM) to the survival medium. A plateau is generally reached after 10 mn of contact, the latter not exceeding 25 mn. A rest of 30 mn and a plurality of rinses take place after each contraction. The products are added 10 mn after U46619 and allowed to rest 15 mn, after which delay the inhibition is measured. The inhibitory concentration 50 (IC) is determined for each compound studied and on a minimum of 3 aortas. The activities of the compounds of the present invention are described in example 108.
as §1

| Compound | IC50 (platelets of guinea-pig) [nM] | IC50 (rat aorta) [nM] | IC50 (platelets of guinea-pig; Cavia porcellus, Platelet) [nM] | IC50 (rat aorta; Rattus norvegicus) [nM] | LD50 [1] [mg/kg] |
| --- | --- | --- | --- | --- | --- |
| O=C(O)Cc1ccc(CC2(CNS(=O)(=O)c3ccc(Cl)cc3)CCCC2)cc1 [Example 20, Sodium 4-[[1-[[[(4-chlorophenyl)sulfonyl]amino]methyl]cyclopentyl]methyl]benzeneacetate] | 280 | 70 | – | – | > 150 |
| C[S+]([O-])c1ccc(S(=O)(=O)NCC2(Cc3ccc(CC(=O)O)cc3)CCCC2)cc1 (stereo not shown) [Example 84, 4-[[1-[[[(4-Methylsulfinylphenyl)sulfonyl]amino]methyl]cyclopentyl]methyl]benzeneacetic acid] | – | – | > 5000 | 1000 | – |
| CC(=O)Nc1ccc(S(=O)(=O)NCC2(Cc3ccc(CC(=O)O)cc3)CCCC2)cc1 [Example 85, 4-[[1-[[[(4-acetamidophenyl)sulfonyl]amino]methyl]cyclopentyl]methyl]benzeneacetic acid] | – | – | 1300 | > 1000 | – |
| O=C(O)Cc1ccc(CC2(CNS(=O)(=O)c3ccc(Cl)cc3)CCCCC2)cc1 [Example 87, 4-[[1-[[[(4-Chlorophenyl)sulfonyl]amino]methyl]cyclohexyl]methyl]benzeneacetic acid] | – | – | 4000 | 600 | – |
| CC1(C)C(C)(C)C1(CNS(=O)(=O)c1ccc(Cl)cc1)Cc1ccc(CC(=O)O)cc1 [Example 90, 4-[[1-[[[(4-Chlorophenyl)sulfonyl]amino]methyl]-2,2,3,3-tetramethylcyclopropyl]methyl]benzeneacetic acid] | – | – | > 5000 | > 1000 | – |
| O=C(O)Cc1ccc(CC2(CNS(=O)(=O)c3ccc(Cl)cc3)CCC(=O)CC2)cc1 [Example 91, 4-[[1-[[[(4-Chlorophenyl)sulfonyl]amino]methyl]-4-oxocyclohexyl]methyl]benzeneacetic acid] | – | – | 3100 | 1000 | – |
| O=C(O)Cc1cccc(CC2(CNS(=O)(=O)c3ccc(Cl)cc3)CCCC2)c1 [Example 93, 3-[[1-[[[(4-Chlorophenyl)sulfonyl]amino]methyl]cyclopentyl]methyl]benzeneacetic acid] | – | – | 1600 | 50 | – |
| CCCCCCc1ccc(S(=O)(=O)NCC2(Cc3ccc(CC(=O)O)cc3)CCCC2)cc1 [Example 94, 4-[[1-[[[(4 -Hexylphenyl)sulfonyl]amino]methyl]cyclopentyl]methyl]benzeneacetic acid] | – | – | 1800 | > 1000 | – |
| CCCCCCOc1ccc(S(=O)(=O)NCC2(Cc3ccc(CC(=O)O)cc3)CCCC2)cc1 [Example 97, 4-[[1-[[[(4-Hexyloxyphenyl)sulfonyl]amino]methyl]cyclopentyl]methyl]benzeneacetic acid] | – | – | 5900 | > 1000 | – |
| O=C(O)Cc1ccc(CC2(CNS(=O)(=O)c3ccc(C4CCCCC4)cc3)CCCC2)cc1 [Example 99, 4-[[1-[[[(4-Cyclohexylphenyl)sulfonyl]amino]methyl]cyclopentyl]methyl]benzeneacetic acid] | – | – | > 5000 | > 1000 | – |
| O=C(O)Cc1ccc(CC2(CNS(=O)(=O)c3c(F)c(F)c(F)c(F)c3F)CCCC2)cc1 [Example 100, 4-[[1-[[[(Pentafluorophenyl)sulfonyl]amino]methyl]cyclopentyl]methyl]benzeneacetic acid] | – | – | > 5000 | > 1000 | – |
| O=C(O)Cc1ccc(CC2(CNS(=O)(=O)c3ccc(-c4ccccc4)cc3)CCCC2)cc1 [Example 101, 4-[[1-[[([1,1'-Biphenyl-4-yl]sulfonyl)amino]methyl]cyclopentyl]methyl]benzeneacetic acid] | – | – | > 5000 | > 1000 | – |
| CSc1ccc(S(=O)(=O)NCC2(Cc3ccc(CC(=O)O)cc3)CCCC2)cc1 [Example 103, 4-[[1-[[[(4-methylthiophenyl]sulfonyl]amino]methyl]cyclopentyl]methyl]benzeneacetic acid] | – | – | 1000 | 180 | – |
| CN(C)c1cccc2c(S(=O)(=O)NCC3(Cc4ccc(CC(=O)O)cc4)CCCC3)cccc12 [Example 104, 4-[[1-[[[[5-(Dimethylamino)naphthalen-1-yl]sulfonyl]amino]methyl]cyclopentyl]methyl]benzeneacetic acid] | – | – | > 5000 | > 1000 | – |
| Complex of sodium 4-[[1-[[[(4-chlorophenyl)sulfonyl]amino]methyl]cyclopentyl]methyl]benzeneacetate and β-cyclodextrine (1:1) [Example 23] | 480 | 40 | – | – | – |
| Complex of sodium trans-4-[[2-[[(4-chlorophenyl)sulfonyl]amino]cyclopentyl]methyl]benzeneacetate and β-cyclodextrine (1:1) [Example 22] | 710 | 150 | – | – | – |

Now from value to compound, other results behind:

| IC50 (platelets of guinea-pig) [nM] | IC50 (rat aorta) [nM] | IC50 (platelets of guinea-pig; Cavia porcellus, Platelet) [nM] | IC50 (rat aorta; Rattus norvegicus) [nM] | Compound | LD50 [1] [mg/kg] |
| --- | --- | --- | --- | --- | --- |
| – | – | 510 | 1000 | Nc1ccc(S(=O)(=O)NCC2(Cc3ccc(CC(=O)O)cc3)CCCC2)cc1 [Example 86, 4-[[1-[[[(4-Aminophenyl)sulfonyl]amino]methyl]cyclopentyl]methyl]benzeneacetic acid] | – |
| – | – | 310 | 1000 | O=C(O)Cc1ccc(CC2(CNS(=O)(=O)c3ccc(Cl)cc3)CCOCC2)cc1 [Example 88, 4-[[4-[[[(4-Chlorophenyl)sulfonyl]amino]methyl]tetrahydropyran-4-yl]methyl]benzeneacetic acid] | – |
| – | – | 260 | 30 | CC1(C)CC(CNS(=O)(=O)c2ccc(Cl)cc2)(Cc2ccc(CC(=O)O)cc2)C1 [Example 89, 4-[[1-[[[(4-Chlorophenyl)sulfonyl]amino]methyl]-3,3-dimethylcyclobutyl]methyl]benzeneacetic acid] | – |
| – | – | 370 | 1000 | O=C(O)Cc1ccccc1CC1(CNS(=O)(=O)c2ccc(Cl)cc2)CCCC1 [Example 92, 2-[[1-[[[(4-Chlorophenyl)sulfonyl]amino]methyl]cyclopentyl]methyl]benzeneacetic acid] | – |
| – | – | 570 | 280 | O=C(O)Cc1ccc(CC2(CNS(=O)(=O)c3ccc([N+](=O)[O-])cc3)CCCC2)cc1 [Example 95] | – |
| – | – | 750 | > 1000 | O=C(O)Cc1ccc(CC2(CNS(=O)(=O)c3cccc4ccccc34)CCCC2)cc1 [Example 96, 4-[[1-[[[(Naphthalen-1-yl)sulfonyl]amino]methyl]cyclopentyl]methyl]benzeneacetic acid] | – |
| – | – | 250 | 320 | O=C(O)Cc1ccc(CC2(CNS(=O)(=O)c3ccccc3F)CCCC2)cc1 [Example 98, 4-[[1-[[[(2-Fluorophenyl)sulfonyl]amino]methyl]cyclopentyl]methyl]benzeneacetic acid] | – |
| – | – | 570 | 110 | O=C(O)Cc1ccc(CC2(CNS(=O)(=O)c3ccc(Cl)cc3F)CCCC2)cc1 [Example 105, 4-[[1-[[[(4-Chloro-2-fluorophenyl)sulfonyl]amino]methyl]cyclopentyl]methyl]benzeneacetic acid] | – |

Source: patent publication US5387709A, “Substituted sulfonamides, process of preparation and medicines containing same” (Lipha Lyonnaise Industrielle Pharmaceutique, priority 1990, dated 1995)
